Source: US5565330A, “Method for removing N-terminal dipeptides from precursor polypeptides with dipeptidylaminopeptidase from Dictyostelium discoideum” (Eli Lilly and Company, priority 1995, dated 1996)

Columns and labels:
[1] = target: T1, bovine spleen DAP-I (Bos taurus, UniProt Q3ZCJ8); assay: Inhibition of GFpNA cleavage by sulfhydryl modifying agents; type: biochemical; conditions: 5 mM inhibitor, 15 minutes at room temperature, pH 7; then 4 mM GFpNA, pH 3.5, 37 degrees; read-out: decrease (inhibition) of bovine DAP-I's rate of cleavage of GFpNA
T1 construct: bovine spleen DAP-I; from tissue; host or cells: bovine spleen
T1 sequence (Q3ZCJ8 231-394 limits assumed): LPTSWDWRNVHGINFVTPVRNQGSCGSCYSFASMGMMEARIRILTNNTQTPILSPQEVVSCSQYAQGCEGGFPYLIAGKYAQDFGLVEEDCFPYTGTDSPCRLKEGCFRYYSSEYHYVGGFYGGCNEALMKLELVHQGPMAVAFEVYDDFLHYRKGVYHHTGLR
T1 sequence (Q3ZCJ8 395-463 limits assumed): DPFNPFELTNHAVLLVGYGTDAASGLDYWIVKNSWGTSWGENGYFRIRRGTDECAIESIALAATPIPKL
T1 sequence (Q3ZCJ8 25-143 limits assumed): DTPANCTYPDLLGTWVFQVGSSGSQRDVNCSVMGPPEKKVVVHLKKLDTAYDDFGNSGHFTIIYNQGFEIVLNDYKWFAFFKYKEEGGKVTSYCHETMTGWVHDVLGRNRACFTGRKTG
Protocol: (§1) dDAP activity is normally monitored by following the cleavage of the chromogenic substrate Gly-Phe para-nitroanilide (GF-pNA). Typically the assay is performed by diluting the enzyme 11 fold into 1.0 ml of 4 mM GFpNA adjusted to pH 3.5. The rate of cleavage of GF dipeptide was monitored at 37° C. by measuring the increase in absorbance at 405 nm. One unit of activity leads to a 0.90 OD change per minute under these conditions. Unit/ml estimates can be made assuming an extinction coefficient for free pNA of 9.9 mM-1 cm-1 at 405 nm.
(§2) The inhibition profile of dDAP toward the substrate GFpNA was compared to that of bovine DAP-I using iodoacetamide and potassium tetrathionate, sulfhydryl modifying agents known to inhibit the activity of DAP-I. Samples of dDAP or bovine spleen DAP-I were incubated for 15 minutes at room temperature in final concentrations of 0, 0.5, 5.0 or 50 mM of either inhibitor at pH 7 in 100 mM Tris buffer. The incubated solutions were then diluted 21-fold with 4 mM GFpNA, pH 3.5. The rate of cleavage was monitored by measuring the increase in absorbance at 405 nm at 37 degrees centigrade. Bovine DAP-I's rate of cleavage of GFpNA was decreased more than 90% by the exposure to 5 mM iodoacetamide and was 95% inhibited by 5 mM potassium tetrathionate.

[2] = tested on: dDAP; assay: as above; type: biochemical, Dictyostelium discoideum; conditions: 0.5, 5.0 or 50 mM inhibitor, 15 minutes at room temperature, pH 7; then 4 mM GFpNA, pH 3.5
Protocol: as §1, §2

[3] = Cleavage of blocked Benzyloxycarbonyl-RR-BNA (fluorescence); type: biochemical; conditions: 0.25 mM Z-RR-BNA, pH 3.5 or pH 5.0
Protocol: (§3) About 0.25 mM RR-BNA or 0.25 mM Benzyloxycarbonyl-RR-BNA (Z-RR-BNA) was prepared in either 100 mM acetic acid, pH 3.5, or 100 mM citrate buffer, pH 5.0. To 2 ml of substrate was added dDAP or bovine DAP-I (about 15 milliunit/ml solution). Rates of cleavage (monitoring fluorescence increase at 410 nm with excitation at 340 nm) were monitored. […] The pH optimum for cleavage of RR-BNA was probed by monitoring the rate of RR-BNA cleavage using a buffer system consisting of 50 mM acetic acid and 50 mM citrate. Various pHs were achieved using HCl or NaOH and 1.5 ml volumes were made 2.0 with 0.5 ml of a 1 mM stock solution of RR-BNA (final concentration of about 0.25 mM). dDAP was added (to about 15 mU/ml) and the rates of cleavage were determined.

[4] = tested on: Met(O)-Arg-hPI; assay: Conversion of oxidized methionyl Met(O)-Arg-hPI (HPLC); type: biochemical, human; conditions: X is Arg, Phe and Tyr
Protocol: Met-Arg-Human Proinsulin (Met-Arg-hPI) was produced as an insoluble protein in the cytoplasm of E. coli. The insoluble protein was solubilized in 7M urea. The protein was purified by ion exchange chromatography. The Met-Arg-hPI was sulfitolyzed, solvent exchanged and folded in order to form the native disulfide bond pairs and native tertiary structure. The material was further purified using reverse phase chromatography.
The Met-Arg-hPI was about 24 mg/ml (in approximately 20 mM glycine buffer, pH 3.5). About 2.4 mg of this material was incubated with 0.19 milliunits of dDAP at pH 3.5. The reaction was allowed to proceed at room temperature. Periodically, aliquots were removed and diluted with 10% phosphoric acid. This material was injected onto a neutral reverse phase HPLC system to monitor for the disappearance of Met-Arg-hPI or Met(O)-Arg-hPI and the subsequent production of hPI. In addition, aliquots were diluted into an appropriate diluent to allow for HPLC monitoring of appearance of either the Met-Arg or Met(O)-Arg dipeptides. Approximately 60% of the Met-Arg-hPI was converted to hPI in 8 hours. […] The rate of cleavage of both substrates was similar. […] The ability of dDAP to cleave the oxidized Met(O)-X substrate has distinct processing advantages over enzymes unable to perform this cleavage.

[5] = Cleavage of Arg-Arg-β-naphthylamide (fluorescence); type: biochemical; conditions: 0.25 mM RR-BNA, pH 3.5 or pH 5.0, about 15 milliunit/ml enzyme
Protocol: as §3

Row | Compound | inhibition at 5000 µM [1] | inhibition of dDAP cleavage of GFpNA [2] | cleavage of blocked amino group Z-RR-BNA [3] | cleavage of Met(O)-X-derivatives of hPI [4] | cleavage of RR-BNA [5]
1 | NC(=O)CI [iodoacetamide] | > 90% | no evidence of significant inhibition | – | – | –
2 | O=S(=O)([O-])SSS(=O)(=O)[O-].[K+].[K+] [potassium tetrathionate] | 95% | no evidence of significant inhibition | – | – | –
3 | bovine DAP-I: bovine spleen dipeptidylaminopeptidase I, comparison enzyme | – | – | unable to cleave | unable to cleave | unable to cleave
